{"source": "patent US20100173888A1", "about": "(Pfizer Inc, priority 2008, published 2010)", "note": "Counter-ions that a name gives are not always drawn.", "data": [{"target": "human recombinant H-PGDS (Homo sapiens, UniProt O60760)", "sequence (O60760 whole entry)": "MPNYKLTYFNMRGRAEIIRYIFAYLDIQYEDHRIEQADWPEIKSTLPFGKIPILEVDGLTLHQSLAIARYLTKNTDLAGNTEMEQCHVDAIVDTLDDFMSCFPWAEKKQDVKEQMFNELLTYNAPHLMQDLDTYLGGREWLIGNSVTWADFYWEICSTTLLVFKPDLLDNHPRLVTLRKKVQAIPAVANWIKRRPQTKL", "assay": "Fluorescence intensity h-PGDS TBA enzyme assay (PGH2 depletion, MDA/TBA fluorescence)", "format": "biochemical", "details": "1:175,000 human recombinant H-PGDS, 42 second reaction, 3-fold serial dilutions, highest concentration typically 1 μM", "method": "Fluoresecence Intensity h-PGDSTBA Enzyme Assay\nProstaglandin D Synthase (PGDS) converts the substrate prostaglandin H2 (PGH2) to prostaglandin D2. The depletion of PGH2 was measured via an Fe(II) reduction of the remaining PGH2 to malondialdehyde (MDA) and 12-HHT. The enzyme assay is based on the quantitative formation of a fluorescent complex from the non-fluorescent compounds MDA and 2-thiobarbituric acid (TBA), substantially as described in U.S. patent application publication US-2004/152148 by Lombardt.\nThe enzyme assay (31 μls) contained 100 mM Tris base pH 8.0, 100 μM MgCl2, 0.1 mg/ml IgG Rabbit serum, 5.0 μM PGH2 (Cayman; ethanol solution, #17020), 2.5 mM L-Glutathione (Sigma; reduced form. #G4251), 1:175,000 human recombinant H-PGDS (from 1 mg/ml), 0.5% DMSO and inhibitor (varying concentration). Three μls of diluted inhibitor (dissolved in DMSO) was plated into a 384-well assay plate followed by a 25 μl addition of an enzyme solution containing h-PGDS, Tris, MgCl2, IgG and L-Glutathione. After preincubation of inhibitor and enzyme solution for 10 minutes at room temperature, the reaction was initiated with a 3 μl addition of substrate solution in 10 mM HCl. The reaction was terminated after 42 second by the addition (3 μl) of stop buffer containing FeCl2 and citric acid. After addition of 45.5 μls of TBA plates were heated for one hour in a 70° C. oven. Plates were cooled at room temperature overnight and read on a plate reader the next day with excitation @ 530 nm and emission @ 565 nm.\nIC50' s of inhibitors were calculated with a 4-parameter fit using 11 inhibitor concentrations in duplicate with 3-fold serial dilutions. Controls on each plate included no inhibitor (zero % effect) and an inhibitor 10-fold in excess of its' IC50 (100% effect). The highest inhibitor concentration tested was typically 1 μM.", "units": {"IC50": "nM"}, "values": [{"compound": "6-(3-Fluorophenyl)-N-(cis-2-hydroxy-2,3-dihydro-1H-inden-1yl]nicotinamide [Example 130]", "IC50": 15.2}, {"compound": "O=C(NC1CCC(O)(C(F)(F)F)CC1)c1ccc(-c2cccc(F)c2)nc1", "note": "(mixture of isomers) [Example 151, 6-(3-Fluorophenyl)-N-(trans 4-hydroxy-4-trifluoromethylcyclohexyl)nicotinamide and 6-(3-Fluorophenyl)-N-(cis 4-hydroxy-4-trifluoromethylcyclohexyl)nicotinamide]", "IC50": 10.3}, {"compound": "CCN1CCC(CNC(=O)[C@H]2CC[C@H](NC(=O)c3ccc(-c4cccc(F)c4)nc3)CC2)C1", "note": "(relative stereo) [Example 113F, N-(trans-4-{[(1-ethylpyrrolidin-3-yl)methyl]carbamoyl}cyclohexyl)-6-(3-fluorophenyl)nicotinamide]", "IC50": 60}, {"compound": "O=C(N[C@H]1CC[C@@H](O)C1)c1ccc(-c2cccc(F)c2)nc1", "note": "(relative stereo) [Example 158, 6-(3-fluorophenyl)-N-[cis-3-hydroxycyclopentyl]nicotinamide]", "IC50": 68.9}, {"compound": "CNCCNC(=O)[C@H]1CCC[C@@H](NC(=O)c2ccc(-c3cccc(F)c3)nc2)C1", "note": "(relative stereo) [Example 189, 6-(3-Fluorophenyl)-N-cis-3-{([2-(methylamino)ethyl]carbamoyl}cyclohexyl]nicotinamide]", "IC50": 13.7}, {"compound": "O=C(N[C@@H]1CCC[C@H](C(=O)NC2CCNCC2)C1)c1ccc(-c2cccc(F)c2)nc1", "note": "(relative stereo) [Example 191, 6-(3-Fluorophenyl)-N-cis-3-(piperidin-4-ylcarbamoyl)cyclohexyl]nicotinamide hydrochloride]", "IC50": 29.2}, {"compound": "CC(C)(CO)NC(=O)[C@H]1CCC[C@@H](NC(=O)c2ccc(-c3cccc(F)c3)nc2)C1", "note": "(relative stereo) [Example 196]", "IC50": 9.6}, {"compound": "CN(C)C(=O)CNC(=O)[C@H]1CCC[C@@H](NC(=O)c2ccc(-c3cccc(F)c3)nc2)C1", "note": "(relative stereo) [Example 198]", "IC50": 19.1}, {"compound": "CC(O)[C@H]1CCC[C@@H](NC(=O)c2ccc(-c3cccc(F)c3)nc2)C1", "note": "(relative stereo) [Example 199, 6-(3-Fluorophenyl)-N-[(cis)-3-(1-hydroxyethyl)cyclohexyl]nicotinamide]", "IC50": 21.8}, {"compound": "N[C@@H]1CCC[C@H](NC(=O)c2ccc(-c3cccc(F)c3)nc2)C1", "note": "(relative stereo) [Example 200, N-[cis-3-Aminocyclohexyl]-6-(3-fluorophenyl)nicotinamide]", "IC50": 189}, {"compound": "O=C(CO)N[C@@H]1CCC[C@H](NC(=O)c2ccc(-c3cccc(F)c3)nc2)C1", "note": "(relative stereo) [Example 202]", "IC50": 17.1}, {"compound": "COCC(=O)N[C@@H]1CCC[C@H](NC(=O)c2ccc(-c3cccc(F)c3)nc2)C1", "note": "(relative stereo) [Example 203, 6-(3-Fluorophenyl)-N-cis-[3-(2-methoxyacetylamino)cyclohexyl]nicotinamide]", "IC50": 17.1}, {"compound": "CN1CCN(CC(=O)N[C@@H]2CCC[C@H](NC(=O)c3ccc(-c4cccc(F)c4)nc3)C2)CC1", "note": "(relative stereo) [Example 204]", "IC50": 68.7}, {"compound": "CS(=O)(=O)N[C@@H]1CCC[C@H](NC(=O)c2ccc(-c3cccc(F)c3)nc2)C1", "note": "(relative stereo) [Example 207, 6-(3-Fluoro-phenyl)-N-cis-(3-methanesulfonylamino-cyclohexyl)-nicotinamide]", "IC50": 81.1}, {"compound": "CN1CCCCC1C(=O)N[C@H]1CC[C@@H](NC(=O)c2ccc(-c3cccc(F)c3)nc2)CC1", "note": "(relative stereo) [Example 217, 6-(3-fluorophenyl)-N-(cis-4-{[(1-methylpiperidin-2-yl)carbonyl]amino}cyclohexyl)nicotinamide]", "IC50": 67.1}, {"compound": "CN1CCCC(C(=O)N[C@H]2CC[C@@H](NC(=O)c3ccc(-c4cccc(F)c4)nc3)CC2)C1", "note": "(relative stereo) [Example 219, 6-(3-fluorophenyl)-N-(cis-4-{[(1-methylpiperidin-3-yl)carbonyl]amino}cyclohexyl)nicotinamide]", "IC50": 32.7}, {"compound": "CC(O)C(=O)N[C@H]1CC[C@@H](NC(=O)c2ccc(-c3cccc(F)c3)nc2)CC1", "note": "(relative stereo) [Example 222, 6-(3-fluorophenyl)-N-[cis-4-(lactoylamino)cyclohexyl]nicotinamide]", "IC50": 50.8}, {"compound": "C[C@]1(C(=O)O)CCC[C@@H](NC(=O)c2ccc(-c3cccc(F)c3)nc2)C1", "note": "(relative stereo) [Example 231, (1S*,3R*)-3-({[6-(3-Fluorophenyl)pyridin-3-yl]carbonyl}amino)-1-methylcyclohexane carboxylic acid]", "IC50": 13.8}, {"compound": "CCN1CCN(C(=O)[C@@]2(C)CCC[C@@H](NC(=O)c3ccc(-c4cccc(F)c4)nc3)C2)CC1", "note": "(relative stereo) [Example 233, N-{(1R*,3S*)-3-[(4-Ethylpiperazin-1-yl)carbonyl]-3-methylcyclohexyl}-6-(3-fluorophenyl)nicotinamide]", "IC50": 4.1}, {"compound": "CN(C)C(=O)[C@@]1(C)CCC[C@@H](NC(=O)c2ccc(-c3cccc(F)c3)nc2)C1", "note": "(relative stereo) [Example 237, N-[(1R*,3S*)-3-(Dimethylcarbamoyl)-3-methylcyclohexyl]-6-(3-fluorophenyl)nicotinamide]", "IC50": 5.1}, {"compound": "O=C(N[C@@H]1CCC[C@@H](C(=O)O)C1)c1ccc(-c2cccc(F)c2)nc1", "note": "(relative stereo) [Example 238A, trans-3-({[6-(3-Fluorophenyl)pyridin-3-yl]carbonyl}amino)cyclohexanecarboxylic acid]", "IC50": 27.4}, {"compound": "CN(C)C(=O)[C@@H]1CCC[C@@H](NC(=O)c2ccc(-c3cccc(F)c3)nc2)C1", "note": "(relative stereo) [Example 238]", "IC50": 47.1}, {"compound": "O=C(N[C@@H]1CCC[C@@H](C(=O)N2CCCC2)C1)c1ccc(-c2cccc(F)c2)nc1", "note": "(relative stereo) [Example 239]", "IC50": 34.9}, {"compound": "COCCNC(=O)[C@@H]1CCC[C@@H](NC(=O)c2ccc(-c3cccc(F)c3)nc2)C1", "note": "(relative stereo) [Example 240]", "IC50": 26.5}, {"compound": "O=C(N[C@@H]1CCC[C@@H](C(=O)N2CCOCC2)C1)c1ccc(-c2cccc(F)c2)nc1", "note": "(relative stereo) [Example 241]", "IC50": 15.4}, {"compound": "O=C(N[C@@H]1CCC[C@@H](C(=O)NCCCO)C1)c1ccc(-c2cccc(F)c2)nc1", "note": "(relative stereo) [Example 242]", "IC50": 19.8}, {"compound": "O=C(N[C@@H]1CCC[C@@H](C(=O)N2CCNCC2)C1)c1ccc(-c2cccc(F)c2)nc1", "note": "(relative stereo) [Example 243]", "IC50": 29.1}, {"compound": "N[C@H]1CCC[C@H](NC(=O)c2ccc(-c3cccc(F)c3)nc2)C1", "note": "(relative stereo) [Example 244, N-[trans-3-Aminocyclohexyl]-6-(3-fluorophenyl)nicotinamide]", "IC50": 192}, {"compound": "O=C(CO)N[C@H]1CCC[C@H](NC(=O)c2ccc(-c3cccc(F)c3)nc2)C1", "note": "(relative stereo) [Example 245]", "IC50": 21.6}, {"compound": "CN1CCN(CC(=O)N[C@H]2CCC[C@H](NC(=O)c3ccc(-c4cccc(F)c4)nc3)C2)CC1", "note": "(relative stereo) [Example 247]", "IC50": 57}, {"compound": "CC(C)(O)C(=O)N[C@H]1CCC[C@H](NC(=O)c2ccc(-c3cccc(F)c3)nc2)C1", "note": "(relative stereo) [Example 248, 6-(3-Fluorophenyl)-N-trans-[3-(2-hydroxy-2-methylpropionylamino)cyclohexyl]nicotinamide]", "IC50": 10.4}, {"compound": "CS(=O)(=O)N[C@H]1CCC[C@H](NC(=O)c2ccc(-c3cccc(F)c3)nc2)C1", "note": "(relative stereo) [Example 249, 6-(3-Fluoro-phenyl)-N-trans-(3-methanesulfonylamino-cyclohexyl)-nicotinamide]", "IC50": 13.9}, {"compound": "O=C(N[C@H]1CCC[C@H](CO)C1)c1ccc(-c2cccc(F)c2)nc1", "note": "(relative stereo) [Example 250]", "IC50": 26.4}, {"compound": "O=C(N[C@@H]1CCC[C@H](CO)C1)c1ccc(-c2cccc(F)c2)nc1", "note": "(relative stereo) [Example 251A]", "IC50": 13.3}, {"compound": "COCC(=O)NC[C@H]1CCC[C@@H](NC(=O)c2ccc(-c3cccc(F)c3)nc2)C1", "note": "(relative stereo) [Example 252]", "IC50": 17.1}, {"compound": "CN(C)CC(=O)NC[C@H]1CCC[C@@H](NC(=O)c2ccc(-c3cccc(F)c3)nc2)C1", "note": "(relative stereo) [Example 253]", "IC50": 50.9}, {"compound": "Cn1nccc1C(=O)NC[C@H]1CCC[C@@H](NC(=O)c2ccc(-c3cccc(F)c3)nc2)C1", "note": "(relative stereo) [Example 255]", "IC50": 12.3}, {"compound": "CC(=O)N1CC(NC[C@H]2CCC[C@@H](NC(=O)c3ccc(-c4cccc(F)c4)nc3)C2)C1", "note": "(relative stereo) [Example 257]", "IC50": 34.5}, {"compound": "O=C(N[C@@H]1CCC[C@H](CN2CCC2)C1)c1ccc(-c2cccc(F)c2)nc1", "note": "(relative stereo) [Example 258]", "IC50": 29.2}, {"compound": "CC(C)(O)[C@@H]1CCC[C@H](NC(=O)c2ccc(-c3cccc(F)c3)nc2)C1", "note": "(relative stereo) [Example 262]", "IC50": 81}]}]}
